# Assay: In vitro permeability across MDCK cell monolayer
# Format: in vitro ADME, Canine
# Details: dog, MDCK, test compound 5 μM, 2 h at 37° C., apical to basolateral, read-out: Permeability Forward A > B
# Procedure: Compounds were evaluated for permeability across a monolayer of Madin-Darby Canine Kidney (MDCK) cells in a transwell device following culturing for 4 days. […] A 0.5 mL of cell suspension (400,000 cells/mL) was placed on membrane and a 1.5 mL media in the bottom wells on day 1. On day 2 and day 3, cells were fed with new media. […] Media was removed from upper chambers and filled with mHBSS with or without CspA, and incubated 30 min at 37° C. with light shaking. Donor chambers were emptied, and filled with test compound at 5 μM in mHBSS. […] Plates were incubated for 2 h at 37° C. with shaking. After 2 h, both the donor and receiver wells were sampled. The bottom chambers were read in a fluorometer to assess LY leakage, and then the media from all wells were assayed by LC/MS/MS to determine compound levels.
row,"Papp A→B at 2 h, 5 μM",Compound
1,10.9 ×10⁻⁶ cm/s,"CC(=O)NC(Cc1cc(F)cc(F)c1)C(O)CNC1(c2cccc(N3CCSCC3)c2)CC1 (stereo not drawn) [Example 23.48, N-(1-(3,5-difluorophenyl)-3-hydroxy-4-(1-(3-thiomorpholinophenyl)cyclopropylamino)butan-2-yl)acetamide]"
2,7.11 ×10⁻⁶ cm/s,"CC(=O)NC(Cc1cc(F)cc(F)c1)C(O)CNC1(c2cnn(C(C)(C)C)c2)CC1 (stereo not drawn) [Example 23.37, N-(4-(1-(1-tert-butyl-1H-pyrazol-4-yl)cyclopropylamino)-1-(3,5-difluorophenyl)-3-hydroxybutan-2-yl)acetamide]"
3,12.1 ×10⁻⁶ cm/s,"CC(=O)NC(Cc1cc(F)cc(F)c1)C(O)CNC1(c2cn(-c3ccsc3)nn2)CC1 (stereo not drawn) [Example 23.20, N-(1-(3,5-difluorophenyl)-3-hydroxy-4-(1-(1-(thiophen-3-yl)-1H-1,2,3-triazol-4-yl)cyclopropylamino)butan-2-yl)acetamide]"
4,8.62 ×10⁻⁶ cm/s,"CC(=O)NC(Cc1cc(F)cc(F)c1)C(O)CNC1(c2cncc(-n3cccn3)c2)CC1 (stereo not drawn) [Example 23.29, N-(4-(1-(5-(1H-pyrazol-1-yl)pyridin-3-yl)cyclopropylamino)-1-(3,5-difluorophenyl)-3-hydroxybutan-2-yl)acetamide]"
5,10 ×10⁻⁶ cm/s,"CC(=O)NC(Cc1cc(F)cc(F)c1)C(O)CNC1(c2csc(C(C)(C)C)c2)CC1 (stereo not drawn) [Example 23.21, N-(4-(1-(5-tert-butylthiophen-3-yl)cyclopropylamino)-1-(3,5-difluorophenyl)-3-hydroxybutan-2-yl)acetamide]"
6,19.4 ×10⁻⁶ cm/s,"CC(=O)NC(Cc1cc(F)cc(F)c1)C(O)CNC1(c2c(F)ccc(-n3cccn3)c2F)CC1 (stereo not drawn) [Example 23.35, N-(4-(1-(2,6-difluoro-3-(1H-pyrazol-1-yl)phenyl)cyclopropylamino)-1-(3,5-difluorophenyl)-3-hydroxybutan-2-yl)acetamide]"
7,12.1 ×10⁻⁶ cm/s,"CC(=O)NC(Cc1cc(F)cc(F)c1)C(O)CNC1(c2cc(-n3cccn3)cs2)CC1 (stereo not drawn) [Example 23.15, N-(4-(1-(4-(1H-pyrazol-1-yl)thiophen-2-yl)cyclopropylamino)-1-(3,5-difluorophenyl)-3-hydroxybutan-2-yl)acetamide]"
8,14.7 ×10⁻⁶ cm/s,"COCC(C)(C)c1cccc(C2(NCC(O)C(Cc3cc(F)cc(F)c3)NC(C)=O)CC2)c1 (stereo not drawn) [Example 23.52, N-(1-(3,5-difluorophenyl)-3-hydroxy-4-(1-(3-(1-methoxy-2-methylpropan-2-yl)phenyl)cyclopropylamino)butan-2-yl)acetamide]"

# The next lines start with the compound.
row,Compound,"Papp A→B at 2 h, 5 μM"
1,"CC(=O)NC(Cc1cc(F)cc(F)c1)C(O)CNC1(c2ncc(C(C)(C)C)o2)CC1 (stereo not drawn) [Example 23.56, N-(4-(1-(5-tert-butyloxazol-2-yl)cyclopropylamino)-1-(3,5-difluorophenyl)-3-hydroxybutan-2-yl)acetamide]",20.4 ×10⁻⁶ cm/s
2,"CC(=O)NC(Cc1cc(F)cc(F)c1)C(O)CNC1(c2cccc(-n3cccn3)c2)CC1C (stereo not drawn) [Example 23.23, N-(4-(1-(3-(1H-pyrazol-1-yl)phenyl)-2-methylcyclopropylamino)-1-(3,5-difluorophenyl)-3-hydroxybutan-2-yl)acetamide]",11.1 ×10⁻⁶ cm/s
3,"O=C(Cc1ccccc1)NC(Cc1cc(F)cc(F)c1)C(O)CNC1(c2cccc(-n3cccn3)c2)CC1 (stereo not drawn) [Example 23.38, N-(4-(1-(3-(1H-pyrazol-1-yl)phenyl)cyclopropylamino)-1-(3,5-difluorophenyl)-3-hydroxybutan-2-yl)-2-phenylacetamide]",22.1 ×10⁻⁶ cm/s
4,"COC(=O)NC(Cc1cc(F)cc(F)c1)C(O)CNC1(c2cccc(-n3cccn3)c2)CC1 (stereo not drawn) [Example 23.45, methyl 4-(1-(3-(1H-pyrazol-1-yl)phenyl)cyclopropylamino)-1-(3,5-difluorophenyl)-3-hydroxybutan-2-ylcarbamate]",17 ×10⁻⁶ cm/s
5,"CC(=O)NC(Cc1cc(F)cc(F)c1)C(O)CNC1(n2cccn2)CC1Cc1ccccc1 (single isomer, unassigned) [23.30 Diastereomer A, N-(4-(2-benzyl-1-(1H-pyrazol-1-yl)cyclopropylamino)-1-(3,5-difluorophenyl)-3-hydroxybutan-2-yl)acetamide]",8.48 ×10⁻⁶ cm/s
6,"C=C(c1cccc(C2(NCC(O)C(Cc3cc(F)cc(F)c3)NC(C)=O)CC2)c1)C(F)(F)F (stereo not drawn) [Example 23.26, N-(1-(3,5-difluorophenyl)-3-hydroxy-4-(1-(3-(3,3,3-trifluoroprop-1-en-2-yl)phenyl)cyclopropylamino)butan-2-yl)acetamide]",10.3 ×10⁻⁶ cm/s
7,"COCC(=O)NC(Cc1cc(F)cc(F)c1)C(O)CNC1(c2cccc(-n3cccn3)c2)CC1 (stereo not drawn) [Example 23.40, N-(4-(1-(3-(1H-pyrazol-1-yl)phenyl)cyclopropylamino)-1-(3,5-difluorophenyl)-3-hydroxybutan-2-yl)-2-methoxyacetamide]",12.9 ×10⁻⁶ cm/s
8,"CC(=O)NC(Cc1cc(F)cc(F)c1)C(O)CNC1(c2cccc(C3COCO3)c2)CC1 (stereo not drawn) [Example 23.53, N-(4-(1-(3-(1,3-dioxolan-4-yl)phenyl)cyclopropylamino)-1-(3,5-difluorophenyl)-3-hydroxybutan-2-yl)acetamide]",12.7 ×10⁻⁶ cm/s
9,"CC(=O)NC(Cc1cc(F)cc(F)c1)C(O)CNC1(c2cccc(C3CCOCOC3)c2)CC1 (stereo not drawn) [Example 23.34, N-(4-(1-(3-(1,3-dioxepan-5-yl)phenyl)cyclopropylamino)-1-(3,5-difluorophenyl)-3-hydroxybutan-2-yl)acetamide]",12.1 ×10⁻⁶ cm/s
10,"COCCOCC(=O)NC(Cc1cc(F)cc(F)c1)C(O)CNC1(c2cccc(-n3cccn3)c2)CC1 (stereo not drawn) [Example 23.44, N-(4-(1-(3-(1H-pyrazol-1-yl)phenyl)cyclopropylamino)-1-(3,5-difluorophenyl)-3-hydroxybutan-2-yl)-2-(2-methoxyethoxy)acetamide]",13.3 ×10⁻⁶ cm/s
11,"CC(=O)NC(Cc1cc(F)cc(F)c1)C(O)CNC1(c2cccc(C3CCOC3)c2)CC1 (stereo not drawn) [Example 23.24, N-(1-(3,5-difluorophenyl)-3-hydroxy-4-(1-(3-(tetrahydrofuran-3-yl)phenyl)cyclopropylamino)butan-2-yl)acetamide]",13.2 ×10⁻⁶ cm/s
12,"CCOCC(=O)NC(Cc1cc(F)cc(F)c1)C(O)CNC1(c2cccc(-n3cccn3)c2)CC1 (stereo not drawn) [Example 23.41, N-(4-(1-(3-(1H-pyrazol-1-yl)phenyl)cyclopropylamino)-1-(3,5-difluorophenyl)-3-hydroxybutan-2-yl)-2-ethoxyacetamide]",9.86 ×10⁻⁶ cm/s
13,"CC(=O)NC(Cc1cc(F)cc(F)c1)C(O)CNC1(c2cncc(CC(C)(C)C)c2)CC1 (stereo not drawn) [Example 23.16, N-(1-(3,5-difluorophenyl)-3-hydroxy-4-(1-(5-neopentylpyridin-3-yl)cyclopropylamino)butan-2-yl)acetamide]",13.5 ×10⁻⁶ cm/s
14,"CC(=O)NC(Cc1cc(F)cc(F)c1)C(O)CNC1(c2cccc(N3CCOCC3)c2)CC1 (stereo not drawn) [Example 23.32, N-(1-(3,5-difluorophenyl)-3-hydroxy-4-(1-(3-morpholinophenyl)cyclopropylamino)butan-2-yl)acetamide]",12.1 ×10⁻⁶ cm/s
15,"CC(=O)NC(Cc1cc(F)cc(F)c1)C(O)CNC1(c2cccc(C3CC=CCO3)c2)CC1 (stereo not drawn) [Example 23.31, N-(1-(3,5-difluorophenyl)-4-(1-(3-(3,6-dihydro-2H-pyran-2-yl)phenyl)cyclopropylamino)-3-hydroxybutan-2-yl)acetamide]",10.7 ×10⁻⁶ cm/s
16,"Cc1cc(CC(=O)NC(Cc2cc(F)cc(F)c2)C(O)CNC2(c3cccc(-n4cccn4)c3)CC2)no1 (stereo not drawn) [Example 23.49, N-(4-(1-(3-(1H-pyrazol-1-yl)phenyl)cyclopropylamino)-1-(3,5-difluorophenyl)-3-hydroxybutan-2-yl)-2-(5-methylisoxazol-3-yl)acetamide]",10.4 ×10⁻⁶ cm/s
17,"CC(=O)NC(Cc1cc(F)cc(F)c1)C(O)CNC1(c2cccc(C(F)C(C)(C)F)c2)CC1 (stereo not drawn) [Example 23.51, N-(4-(1-(3-(1,2-difluoro-2-methylpropyl)phenyl)cyclopropylamino)-1-(3,5-difluorophenyl)-3-hydroxybutan-2-yl)acetamide]",12.7 ×10⁻⁶ cm/s
18,"CC(=O)NC(Cc1cc(F)cc(F)c1)C(O)CNC1(n2cccn2)C2CCCC21 (stereo not drawn) [Example 23.14, N-(4-(6-(1H-pyrazol-1-yl)bicyclo[3.1.0]hexan-6-ylamino)-1-(3,5-difluorophenyl)-3-hydroxybutan-2-yl)acetamide]",20.4 ×10⁻⁶ cm/s
19,"CC(=O)NC(Cc1cc(F)cc(F)c1)C(O)CNC1(c2cccc(C(C)(C)C(F)F)c2)CC1 (stereo not drawn) [Example 23.50, N-(4-(1-(3-(1,1-difluoro-2-methylpropan-2-yl)phenyl)cyclopropylamino)-1-(3,5-difluorophenyl)-3-hydroxybutan-2-yl)acetamide]",12.8 ×10⁻⁶ cm/s

# Same assay, conditions: dog, test compound 5 μM, 2 h at 37° C., apical to basolateral, read-out: Permeability Forward A > B
row,"Papp A→B at 2 h, 5 μM",Compound
1,11.3 ×10⁻⁶ cm/s,"CC(=O)NC(Cc1cc(F)cc(F)c1)C(O)CNC1(c2nc(CC(C)(C)C)cs2)CC1 (stereo not drawn) [Example 23.36, N-(1-(3,5-difluorophenyl)-3-hydroxy-4-(1-(4-neopentylthiazol-2-yl)cyclopropylamino)butan-2-yl)acetamide]"
2,26.7 ×10⁻⁶ cm/s,"CC(=O)NC(Cc1cc(F)cc(F)c1)C(O)CNC1(c2csc(CC(C)(C)C)n2)CC1 (stereo not drawn) [Example 23.19, N-(4-(1-(2-neopentylthiazol-4-yl)cyclopropylanimo)1-(3,5-difluorophenyl)-3-hydroxybutan-2-yl)acetamide]"

row,Compound,"Papp A→B at 2 h, 5 μM"
1,"CC(C)(C)Cc1cc(C2(NCC(O)C(Cc3cc(F)cc(F)c3)NC(=O)CF)CC2)on1 (stereo not drawn) [Example 23.10, N-(4-(1-(3-neopentylisoxazol-5-yl)cyclopropylamino)-1-(3,5-difluorophenyl)-3-hydroxybutan-2-yl)-2-fluoroacetamide]",8.26 ×10⁻⁶ cm/s
